Laboratory results from paper PMC9555642 (PLoS ONE, 2022).

How the values were obtained:
HDAC5 = target: T1, HDAC5 (Homo sapiens, UniProt Q9UQL6); assay: HDAC enzymatic activity (Eurofins); type: biochemical; conditions: Class IIA; ACY-1083 mean of two separate measurements, Ricolinostat and Tubastatin A one measurement
T1 construct: purchased Eurofins Pharma Discovery Services 2494

HDAC3 = target: T2, HDAC3 (Homo sapiens, UniProt O15379); assay: HDAC enzymatic activity (Eurofins); type: biochemical; conditions: Class I; ACY-1083 mean of two separate measurements, Ricolinostat and Tubastatin A one measurement
T2 construct: purchased Eurofins Pharma Discovery Services 2083

HDAC10 = target: T3, HDAC10 (Homo sapiens, UniProt Q969S8); assay: HDAC enzymatic activity (Eurofins); type: biochemical; conditions: Class IIB; ACY-1083 mean of two separate measurements, Ricolinostat and Tubastatin A one measurement
T3 construct: purchased Eurofins Pharma Discovery Services 2662
T3 sequence (Q969S8 1-669): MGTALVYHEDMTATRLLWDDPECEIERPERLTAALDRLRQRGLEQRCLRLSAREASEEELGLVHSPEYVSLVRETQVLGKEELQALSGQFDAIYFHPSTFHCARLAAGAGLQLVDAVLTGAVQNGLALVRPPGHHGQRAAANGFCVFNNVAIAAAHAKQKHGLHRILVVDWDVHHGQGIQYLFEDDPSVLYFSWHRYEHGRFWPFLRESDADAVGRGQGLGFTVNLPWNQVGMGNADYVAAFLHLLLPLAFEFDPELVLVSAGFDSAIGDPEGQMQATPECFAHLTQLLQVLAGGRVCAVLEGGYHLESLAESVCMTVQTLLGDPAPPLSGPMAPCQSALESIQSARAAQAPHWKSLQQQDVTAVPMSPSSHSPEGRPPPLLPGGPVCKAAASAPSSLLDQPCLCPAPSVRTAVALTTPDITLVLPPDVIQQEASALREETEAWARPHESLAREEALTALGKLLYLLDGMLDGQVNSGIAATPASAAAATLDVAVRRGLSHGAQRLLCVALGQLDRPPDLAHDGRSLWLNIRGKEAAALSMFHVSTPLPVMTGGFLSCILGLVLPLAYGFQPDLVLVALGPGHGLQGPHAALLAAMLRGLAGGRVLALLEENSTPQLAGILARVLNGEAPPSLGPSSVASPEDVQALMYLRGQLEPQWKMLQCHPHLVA

IKs = target: T4, IKs (Homo sapiens, UniProt P51787); assay: Cardiovascular ion channel panel, SyncroPatch 384PE patch clamp; type: cell-based; conditions: CHO K1 cell line, room temperature, 6 point cumulative assay
T4 construct: expressed in transfected cells; host or cells: Chinese hamster ovary K1 cell line

HDAC11 = target: T5, HDAC11 (Homo sapiens, UniProt Q96DB2); assay: HDAC enzymatic activity (Eurofins); type: biochemical; conditions: Class IV; ACY-1083 mean of two separate measurements, Ricolinostat and Tubastatin A one measurement
T5 construct: purchased Eurofins Pharma Discovery Services 2663
T5 sequence (Q96DB2 1-347): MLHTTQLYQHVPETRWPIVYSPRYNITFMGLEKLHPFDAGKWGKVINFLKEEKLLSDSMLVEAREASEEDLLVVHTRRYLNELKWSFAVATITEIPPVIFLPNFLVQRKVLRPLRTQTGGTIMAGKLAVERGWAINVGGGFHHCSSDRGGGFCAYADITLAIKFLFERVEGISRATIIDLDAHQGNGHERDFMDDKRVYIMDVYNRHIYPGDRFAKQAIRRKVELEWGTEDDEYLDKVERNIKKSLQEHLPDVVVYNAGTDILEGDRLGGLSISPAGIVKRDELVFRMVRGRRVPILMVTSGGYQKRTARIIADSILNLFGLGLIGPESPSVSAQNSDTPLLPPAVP

T1 sequence (Q9UQL6 whole entry): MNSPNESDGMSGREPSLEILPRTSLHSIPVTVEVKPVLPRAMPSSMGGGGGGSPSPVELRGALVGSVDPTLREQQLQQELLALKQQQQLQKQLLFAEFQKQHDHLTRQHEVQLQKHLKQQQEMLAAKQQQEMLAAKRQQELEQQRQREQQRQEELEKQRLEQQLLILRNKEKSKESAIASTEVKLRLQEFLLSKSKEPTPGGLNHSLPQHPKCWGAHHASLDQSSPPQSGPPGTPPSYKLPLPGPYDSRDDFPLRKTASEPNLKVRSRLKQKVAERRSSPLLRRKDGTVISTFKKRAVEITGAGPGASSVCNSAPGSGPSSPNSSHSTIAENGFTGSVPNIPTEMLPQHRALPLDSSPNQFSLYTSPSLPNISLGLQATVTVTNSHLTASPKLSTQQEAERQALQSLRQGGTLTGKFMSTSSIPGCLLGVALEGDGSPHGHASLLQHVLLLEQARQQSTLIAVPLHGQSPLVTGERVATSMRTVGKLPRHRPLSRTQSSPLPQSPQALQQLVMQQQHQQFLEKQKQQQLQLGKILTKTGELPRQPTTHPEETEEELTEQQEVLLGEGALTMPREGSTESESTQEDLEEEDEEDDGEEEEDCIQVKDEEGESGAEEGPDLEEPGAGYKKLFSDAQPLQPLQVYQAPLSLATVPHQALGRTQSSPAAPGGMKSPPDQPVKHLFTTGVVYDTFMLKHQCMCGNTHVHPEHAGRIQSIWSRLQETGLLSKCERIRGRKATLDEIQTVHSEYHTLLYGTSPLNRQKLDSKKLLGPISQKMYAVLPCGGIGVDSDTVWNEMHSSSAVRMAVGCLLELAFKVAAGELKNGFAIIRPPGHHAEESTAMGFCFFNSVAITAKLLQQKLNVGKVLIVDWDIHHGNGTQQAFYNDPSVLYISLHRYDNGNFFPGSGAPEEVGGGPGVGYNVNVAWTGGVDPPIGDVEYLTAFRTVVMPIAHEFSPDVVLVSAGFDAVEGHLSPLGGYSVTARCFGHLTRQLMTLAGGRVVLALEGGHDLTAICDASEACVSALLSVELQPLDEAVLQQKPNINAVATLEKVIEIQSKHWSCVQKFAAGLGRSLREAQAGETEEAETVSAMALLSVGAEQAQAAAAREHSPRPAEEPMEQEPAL
T2 sequence (O15379 whole entry): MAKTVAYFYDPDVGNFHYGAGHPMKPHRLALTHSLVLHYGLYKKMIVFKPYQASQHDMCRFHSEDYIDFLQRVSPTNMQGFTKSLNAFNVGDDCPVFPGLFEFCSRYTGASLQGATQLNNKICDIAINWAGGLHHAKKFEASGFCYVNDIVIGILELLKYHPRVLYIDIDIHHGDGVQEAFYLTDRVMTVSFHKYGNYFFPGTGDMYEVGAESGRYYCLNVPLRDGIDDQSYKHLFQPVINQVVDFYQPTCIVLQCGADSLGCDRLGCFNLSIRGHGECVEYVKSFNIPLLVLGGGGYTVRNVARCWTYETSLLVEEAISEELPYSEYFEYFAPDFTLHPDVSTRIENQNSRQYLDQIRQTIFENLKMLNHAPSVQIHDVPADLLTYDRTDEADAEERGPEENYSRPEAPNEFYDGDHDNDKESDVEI
T2 sequence (Q9Y618 395-489 partner limits assumed): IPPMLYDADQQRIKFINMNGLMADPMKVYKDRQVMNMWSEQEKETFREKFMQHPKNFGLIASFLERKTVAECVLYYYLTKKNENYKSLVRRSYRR

- IC50 (HDAC5): 4.17 µM
- IC50 (HDAC3): > 87.5 µM
- IC50 (HDAC10): 18.5 µM
- IC50 (HDAC11): 18.2 µM
Substance: ACY-1083
- activity on IKs (IKs): > 30 µM
